Laboratory results reported in publication PMC10215302 (Antibiotics, 2023).
Read-outs that look alike come from different tables or passages of the source.

Legend:
[1] = tested on: S. aureus SA0077; conditions: for MIC values: Table S1: SA0077 Abf (passages on antibiotic-free media)
[2] = tested on: S. aureus SA0085; conditions: for MIC values: Table S1: SA0085 Abf (passages on antibiotic-free media)
[3] = tested on: S. aureus SA0422
[4] = tested on: S. aureus SA0736
[5] = tested on: S. aureus ATCC 29213
[6] = tested on: S. aureus RN4220
[7] = tested on: S. aureus derivative strains; conditions: for MIC: daptomycin-selected derivative strains without WalK mutations (all except SA0422), susceptible
[8] = tested on: S. aureus SA0077; assay: microbe, parasite or virus in culture; conditions: Staphylococcus aureus
[9] = tested on: S. aureus SA0085; assay: microbe, parasite or virus in culture; conditions: Staphylococcus aureus
[10] = tested on: S. aureus SA0422; assay: microbe, parasite or virus in culture; conditions: Staphylococcus aureus
[11] = tested on: S. aureus SA0736; assay: microbe, parasite or virus in culture; conditions: Staphylococcus aureus
[12] = tested on: S. aureus ATCC 29213; assay: microbe, parasite or virus in culture; conditions: Staphylococcus aureus
[13] = tested on: S. aureus RN4220; assay: microbe, parasite or virus in culture; conditions: Staphylococcus aureus, RN4220, read-out: MIC values
[14] = SA0077, selecting agent DAP, passage 20
[15] = SA0077, selecting agent DAP, passage 40
[16] = SA0077, selecting agent VAN, passage 0
[17] = SA0077, selecting agent VAN, passage 5
[18] = SA0077, selecting agent VAN, passage 20
[19] = SA0077, selecting agent VAN, passage 40
[20] = SA0085, selecting agent DAP, passage 5
[21] = SA0085, selecting agent DAP, passage 20
[22] = SA0085, selecting agent DAP, passage 40
[23] = SA0085, selecting agent VAN, passage 0
[24] = SA0085, selecting agent VAN, passage 5
[25] = SA0085, selecting agent VAN, passage 20
[26] = SA0085, selecting agent VAN, passage 40
[27] = SA0422, selecting agent DAP, passage 5
[28] = SA0422, selecting agent DAP, passage 20
[29] = SA0422, selecting agent DAP, passage 40
[30] = SA0422, selecting agent VAN, passage 0
[31] = SA0422, selecting agent VAN, passage 5
[32] = SA0422, selecting agent VAN, passage 20
[33] = SA0422, selecting agent VAN, passage 40
[34] = SA0736, selecting agent DAP, passage 5
[35] = SA0736, selecting agent DAP, passage 20
[36] = SA0736, selecting agent DAP, passage 40Y (yellow colonies)
[37] = SA0736, selecting agent VAN, passage 5
[38] = SA0736, selecting agent VAN, passage 20
[39] = SA0736, selecting agent VAN, passage 40
[40] = Table S1: SA0736 DAP-W (40 passages on daptomycin, white colonies)
[41] = Table S1: SA0736 DAP-Y (40 passages on daptomycin, yellow colonies)
[42] = ATCC 29213, selecting agent DAP, passage 5
[43] = ATCC 29213, selecting agent DAP, passage 20
[44] = ATCC 29213, selecting agent DAP, passage 40
[45] = ATCC 29213, selecting agent VAN, passage 0
[46] = ATCC 29213, selecting agent VAN, passage 5
[47] = ATCC 29213, selecting agent VAN, passage 20
[48] = ATCC 29213, selecting agent VAN, passage 40
[49] = Table S1: RN4220 ∆ (strain with deletion in SACOL1927)
[50] = SA0077, selecting agent DAP, passage 5
[51] = SA0736, selecting agent VAN, passage 0
[52] = SA0077, read-out: MIC values, Table S1: SA0077 DAP (derivative after 40 passages on daptomycin)
[53] = SA0085, read-out: MIC values, Table S1: SA0085 Abf (passages on antibiotic-free media)
[54] = SA0085, read-out: MIC values, Table S1: SA0085 VAN (derivative after 40 passages on vancomycin)
[55] = SA0422, read-out: MIC values, Table S1: SA0422 DAP (derivative after 40 passages on daptomycin)
[56] = SA0422, read-out: MIC values, Table S1: SA0422 VAN (derivative after 40 passages on vancomycin)
[57] = SA0736, read-out: MIC values, Table S1: SA0736 DAP-Y (40 passages on daptomycin, yellow colonies)
[58] = SA0736, read-out: MIC values, Table S1: SA0736 VAN (derivative after 40 passages on vancomycin)
[59] = ATCC29213, read-out: MIC values
[60] = ATCC29213, read-out: MIC values, Table S1: ATCC 29213 DAP (derivative after 40 passages on daptomycin)
[61] = SA0077, read-out: MIC values, Table S1: SA0077 Abf (passages on antibiotic-free media)
[62] = SA0077, read-out: MIC values, Table S1: SA0077 VAN (derivative after 40 passages on vancomycin)

telavancin [TLV]
.125 µg/mL: MIC values [4, 40] | MIC values [4, 41]
<0.03 µg/mL: MIC [5, 42] | MIC [5, 45] | MIC [5, 46]
0.5 µg/mL: MIC [1, 18] | MIC [3, 32] | MIC [4, 38] | MIC [4, 39] | MIC [5, 48]
0.06 µg/mL: MIC [1, 17] | MIC [2, 20] | MIC [2, 21] | MIC [2, 23] | MIC [2, 24] | MIC values [2] | MIC values ([6]; Table S1: RN4220 WT) | MIC values [6, 49]
0.25 µg/mL: MIC [2, 22] | MIC [2, 25] | MIC [2, 26] | MIC [3, 28] | MIC [3, 29] | MIC [3, 31] | MIC [4, 37] | MIC [5, 44]
0.125 to 0.25 µg/mL: MIC by the end of daptomycin selection ([7]; derivatives, end of daptomycin selection)
0.125 µg/mL: MIC [1, 14] | MIC [1, 15] | MIC [1, 16] | MIC [3, 27] | MIC [3, 30] | MIC [4, 34] | MIC [4, 35] | MIC ([4]; SA0736, selecting agent DAP, passage 40W (white colonies)) | MIC [4, 36] | MIC [5, 43] | MIC [5, 47]
≤ 0.125 µg/mL: MIC [7]
0.03 µg/mL: MIC values [1]
1 µg/mL: MIC [1, 19] | MIC [3, 33]

dalbavancin
2 µg/mL: MIC [1, 19] | MIC [5, 48]
<0.016 µg/mL: MIC [2, 20] | MIC [2, 23] | MIC [5, 45] | MIC [5, 46] | MIC [5, 47]
0.03 µg/mL: MIC [1, 16] | MIC values [1] | MIC values [2] | MIC [3, 30] | MIC [4, 34] | MIC [4, 51] | MIC [5, 42] | MIC values ([6]; Table S1: RN4220 WT) | MIC values [6, 49]
<0.03 µg/mL: MIC [1, 50]
0.25 µg/mL: MIC [1, 17] | MIC [2, 26] | MIC [3, 28] | MIC [3, 29] | MIC [4, 35]
≤ 0.125 µg/mL: MIC [7]
1 µg/mL: MIC [1, 18] | MIC [3, 33] | MIC [4, 38] | MIC [4, 39]
0.125 µg/mL: MIC [1, 14] | MIC [1, 15] | MIC [2, 22] | MIC [3, 31] | MIC [4, 37] | MIC [5, 44]
0.06 µg/mL: MIC [2, 24] | MIC [3, 27] | MIC [5, 43]
0.5 µg/mL: MIC [2, 25] | MIC [3, 32] | MIC [4, 36] | MIC values [4, 40] | MIC values [4, 41]

CCO/N=C(\C(=O)N[C@@H]1C(=O)N2C(C(=O)[O-])=C(Sc3nc(-c4cc[n+](C)cc4)cs3)CS[C@H]12)c1nsc(N)n1 [Ceftaroline]
0.125 µg/mL: MIC [9, 54] | MIC [12, 59]
0.5 µg/mL: MIC values [6, 49] | MIC [8, 52] | MIC [9, 53] | MIC [10, 55] | MIC ([11]; SA0736, read-out: MIC values, Table S1: SA0736 DAP-W (40 passages on daptomycin, white colonies)) | MIC [11, 57] | MIC [11, 58] | MIC [13]
1 µg/mL: MIC ([8]; SA0077, read-out: MIC values) | MIC ([9]; SA0085, read-out: MIC values) | MIC [10, 56] | MIC ([11]; SA0736, read-out: MIC values)
2 µg/mL: MIC ([10]; SA0422, read-out: MIC values)
0.25 µg/mL: MIC [12, 60]

oritavancin
0.125 µg/mL: MIC [1, 17] | MIC [3, 27] | MIC [5, 43]
< 0.03 µg/mL: MIC values [2]
2 µg/mL: MIC [1, 50] | MIC [1, 18] | MIC [1, 19] | MIC [2, 25] | MIC [4, 35] | MIC [4, 38] | MIC [4, 39] | MIC [5, 44]
0.016 µg/mL: MIC values ([6]; Table S1: RN4220 WT) | MIC values [6, 49]
0.06 µg/mL: MIC values [1] | MIC [2, 21] | MIC [2, 24] | MIC [3, 31] | MIC [5, 42] | MIC [5, 45] | MIC [5, 46] | MIC [5, 47]
<0.03 µg/mL: MIC [1, 16] | MIC [2, 20] | MIC [2, 23] | MIC [3, 30] | MIC [4, 34] | MIC [4, 51]
0.25 µg/mL: MIC [3, 32] | MIC [4, 37]
1 µg/mL: MIC [2, 22] | MIC [2, 26]
4 µg/mL: MIC [1, 14] | MIC [1, 15] | MIC [4, 36] | MIC values [4, 40] | MIC values [4, 41] | MIC [5, 48]
0.5 µg/mL: MIC [3, 28] | MIC [3, 29] | MIC [3, 33]

CO[C@@]1(NC(=O)Cc2cccs2)C(=O)N2C(C(=O)O)=C(COC(N)=O)CS[C@@H]21 [Cefoxitin]
2 µg/mL: MIC [12, 60]
256 µg/mL: MIC ([8]; SA0077, read-out: MIC values) | MIC ([9]; SA0085, read-out: MIC values) | MIC ([10]; SA0422, read-out: MIC values)
4 µg/mL: MIC values [6, 49] | MIC [9, 53] | MIC [9, 54] | MIC [12, 59] | MIC [13]
64 µg/mL: MIC [8, 61] | MIC [10, 55] | MIC ([11]; SA0736, read-out: MIC values)
128 µg/mL: MIC [8, 52] | MIC [8, 62] | MIC [11, 58]
8 µg/mL: MIC [11, 57]

Cc1onc(-c2ccccc2)c1C(=O)N[C@@H]1C(=O)N2[C@@H]1SC(C)(C)[C@@H]2C(=O)O [Oxacillin]
16 µg/mL: MIC [11, 57]
2 µg/mL: MIC [10, 55]
1 µg/mL: MIC after 40 passages in antibiotic-free media ([2]; SA0085, after 40 passages in antibiotic-free media (SCCmec excision)) | MIC [9, 53]
128 µg/mL: MIC [8, 61]
< 0.5 µg/mL: MIC values [6, 49] | MIC [12, 59] | MIC [13]
64 µg/mL: MIC ([11]; SA0736, read-out: MIC values)
256 µg/mL: MIC [8, 52] | MIC ([9]; SA0085, read-out: MIC values) | MIC [10, 56]
512 µg/mL: MIC ([8]; SA0077, read-out: MIC values) | MIC ([9]; SA0085, read-out: MIC before passaging, SA0085, before passaging in antibiotic-free media) | MIC ([10]; SA0422, read-out: MIC values)
32 µg/mL: MIC [8, 62] | MIC [9, 54]
